# How the values were obtained:
# Acute toxicity on rats = assay type: in vivo; conditions: mice and rats, maximum amount that can be administered
# From the text: Toxicities of TN and TA will now be described.
# [1] = Teratogenetic property test; assay type: in vivo, pregnant mice or pregnant rats; conditions: orally, 100 to 1200 mg/Kg
# From the text: (C) Teratogenetic Property Test:
# [2] = Hypotensive effect on rats of spontaneous hypertension, old SHR; assay type: in vivo, rats (9-month-old male SHR); conditions: 100 mg/kg TN orally once a day
# Description: (B) Hypotensive Effect on Rats of Spontaneous Hypertension:
# (§1) Experiments were conducted by using two classes of rats of spontaneous hypertension (hereinafter referred to as "SHR"; provided by Nippon Rat K.K.) differing in the age. In the first experiment, 9-month-old chronic […] SHR (hereinafter referred to as "old SHR"), and in the second experiment, 7-week-old SHR in which hypertension was advancing (hereinafter referred to as "young SHR") was used.
# (1) Experiment on Old SHR:
# 40 of 9-month-old male SHR (having a body weight of 360 to 450 g) were divided into 10 groups, each consisting of 4 rats, and each group was placed in a cage. One of the rats in each cage was used as the non-administered control animal, and 20 mg/Kg of TN, 100 mg/Kg of TN and 88 mg/Kg of TA (equimolar to 100 mg/Kg of TN) were administered to the remaining 3 rats, respectively. Each hypotensive agent was orally administered once a day over a period of 4 weeks in the form of a suspension in gum arabic. Gum arabic solution was administered to the Control (non-administered) group. Simultaneously with initiation of the administration, drinking water was exchanged from service water to a 1% aqueous solution of sodium chloride.
# [3] = Experiment on young SHR (rats of spontaneous hypertension); assay type: in vivo, rats (7-week-old female SHR); conditions: for dead rats within 6 weeks from the start of the administration: control 5 among 11; for dead rats within 2 weeks from the start of administration: judged pneumonia, control 3
# Description: as §1
# (B) Experiment on Young SHR:
# 72 of 7-week-old female SHR (having a body weight of 130 to 175 g) were divided into 9 cages, each consisting of 8 rats. Service water was given as drinking water to rats of two cages among these 9 cages, and these rats were compared with other rats which were given a 1% aqueous solution of sodium chloride as drinking water. In each of the […] cages of rats to which the sodium chloride solution was given, no agent was administered to 2 of 8 rats, 20 mg/Kg of TN was administered to another 2 rats, 100 mg/Kg of TN was administered to still another 2 rats, and 88 mg/Kg of TA was administered to the remaining 2 rats.
# After 2 weeks' feeding with the sodium chloride solution, administration was conducted once a day. Within 2 weeks from the start of administration,3 rats in the Control (non-administered) group, one rat in the 20 mg/Kg TN administered group, 3 rats in the 100 mg/Kg TN administered group, 3 rats in the 88 mg/Kg TA administered group and 4 rats in the service water given group were dead. In view of the body weight decrease and the snivel secretion and from the results of autopsy, it was judged that each of them died of pneumonia. The rats that died prior to initiation of the administration were not taken in account in evaluating the experimental results.
# [4] = Clinical Experiment II: improvement of subjective symptoms; assay type: in vivo, human patients
# Description: (§2) 75 patients of hypertension or arteriosclerosis having subjective symptoms were tested. Some of them suffered from complications such as ischemia heart disease and cerebral thrombosis. They are detailed in Table 11.
# (§3) Two capsules were administered at one time, and the administration was conducted 3 times per day after eating. The duration of the continuous administration was 4 weeks. Combined use of drugs having the same functions as those of TN (vitamin E drugs, nicotinic acid, its derivatives and peripheral vasolidators) and minor tranquilizers was prohibited.
# Changes of various subjective symptoms of patients of hypertension were collectively examined, and at the time of termination of the administration, the degrees of improvements were judged and evaluated in both the TN administered group and the P group, to obtain results shown in Table 22.
# [5] = Clinical Experiment II: general improvement; assay type: in vivo, human patients
# Description: as §2, §3
# With respect to patients of hypertension alone, the general improvement was evaluated collectively based on subjective symptoms and clinical test data to obtain results shown in Table 23.
# Solubility = assay type: physicochemical
# [6] = conclusion of both clinical experiments
# [7] = level of significance lower than 5%
compound,measurement,setting,value
"Cc1c(C)c2c(c(C)c1OC(=O)c1cccnc1)CCC(C)(CCCC(C)CCCC(C)CCCC(C)C)O2 (racemic) [TN, dl-α-tocopheryl nicotinate]",animals killed in acute toxicity test,Acute toxicity on rats,no test animal was killed
same,"influences on mother animals, embryos and newborn babies",[1],no influences were observed
same,teratogenetic property,[1],no teratogenetic property
same,difference of the blood pressure between control and administered group,[2]; 3rd week,about 30 mm Hg
same,lowering of blood pressure on the average,[2]; after 1 week,15 mm Hg
same,dead rats within 6 weeks from the start of the administration,"[3]; 20 mg/kg TN, among 13 rats",3 rats
same,dead rats within 2 weeks from the start of administration,[3]; 20 mg/kg TN,one
same,dead rats within 6 weeks from the start of the administration,"[3]; 100 mg/kg TN, among 11 rats",4 rats
same,dead rats within 2 weeks from the start of administration,[3]; 100 mg/kg TN,3 rats
same,Improvement of subjective symptoms: Improvement Ratio,"[4]; P group 52.94, P < 0.05",86.36%
same,degree of improvement of subjective symptoms versus P group,[4]; [6],higher than in the P group
same,"improving rush of blood, dizzy feeling, stiffness in the shoulders, stiffness in the nape, heaviness in the head and insomnia",[4]; [6],especially good effects
same,degree of improvement of subjective symptoms versus P group,[4]; [7],excellent over that in the P group at a level of significance lower than 5%
same,Improvement of subjective symptoms: Not Changed,"[4]; number of patients, total 22",3
same,Improvement of subjective symptoms: Partial Improvement,"[4]; number of patients, total 22",6
same,Improvement of subjective symptoms: Remarkable Improvement,"[4]; number of patients, total 22",7
same,Improvement of subjective symptoms: Slight Improvement,"[4]; number of patients, total 22",6
same,Improvement of subjective symptoms: Worsened,"[4]; number of patients, total 22",0
same,General improvement: Improvement Ratio,"[5]; P group 52.94, P < 0.05",86.36%
same,general improvement versus P group,"[5]; conclusion of both clinical experiments, significance lower than 0.5%",significantly excellent over that in the P group at a level of significance lower than 0.5%
same,general improvement versus P group,[5]; [7],excellent over that in the P group at a level of significance lower than 5%
same,General improvement: Not Changed,"[5]; number of patients, total 22",3
same,General improvement: Partial Improvement,"[5]; number of patients, total 22",7
same,General improvement: Remarkable Improvement,"[5]; number of patients, total 22",4
same,General improvement: Slight Improvement,"[5]; number of patients, total 22",8
same,General improvement: Worsened,"[5]; number of patients, total 22",0
same,solubility in organic solvents,Solubility,"easily soluble in acetone, benzene, chloroform, ether and ethanol"
same,solubility in water,Solubility,hardly soluble in water

# Reference: patent US4088778A, “Method for the treatment of hypertension” (priority 1975, dated 1978)
